The values that follow come from patent publication US20200222400A1, “METHODS FOR THE TREATMENT OF NEUROLOGICAL DISORDERS” (Yumanity Therapeutics, Inc., priority 2019, published 2020).

Some results are limits rather than exact numbers.

The target of one test is T1, yeast OLE1 (Saccharomyces cerevisiae, UniProt P21147).
T1 construct: expressed in transfected cells; host or cells: S. cerevisiae ole1Δ strain (W303 pdr1Δ pdr3Δ background), pRS316 plasmid, TDH3 promoter
T1 sequence (P21147 1-510): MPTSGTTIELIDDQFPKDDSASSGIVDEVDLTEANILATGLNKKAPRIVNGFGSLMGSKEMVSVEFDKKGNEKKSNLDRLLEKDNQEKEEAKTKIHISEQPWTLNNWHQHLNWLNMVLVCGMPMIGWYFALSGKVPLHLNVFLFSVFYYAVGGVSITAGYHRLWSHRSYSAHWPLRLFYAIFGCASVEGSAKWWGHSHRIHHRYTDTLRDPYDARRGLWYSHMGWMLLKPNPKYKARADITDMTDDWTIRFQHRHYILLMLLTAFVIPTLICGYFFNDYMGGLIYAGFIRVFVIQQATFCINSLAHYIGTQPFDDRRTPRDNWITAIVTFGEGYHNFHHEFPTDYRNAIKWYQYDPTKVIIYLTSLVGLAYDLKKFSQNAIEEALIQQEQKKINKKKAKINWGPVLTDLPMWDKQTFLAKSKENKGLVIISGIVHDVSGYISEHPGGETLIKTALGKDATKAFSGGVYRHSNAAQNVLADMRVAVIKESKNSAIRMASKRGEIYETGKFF
Description: Growth of yeast surviving solely on yeast OLE1. In kind it is cell-based. Particulars: percent of DMSO-treated condition. From the text:
(§1) To generate yeast strains expressing SCD1 or SCD5 as the sole desaturase, the human SCD1 and SCD5 genes were cloned from cDNAs (Harvard PlasmID database Clone ID HsCD00340237 for SCD1 and HsCD00342695 for SCD5) into yeast plasmid pRS316 (ATCC 77145) between the yeast TDH3 promoter and the CYC1 terminator. The coding sequence of yeast OLE1 was also cloned into this plasmid). These clones were then transformed into the ole1Δ strain and plated on CSM-Ura media (CSM lacking uracil) with 2% glucose (w/v) and independent colonies were isolated and amplified.
(§2) All compound profiling experiments were performed using the same basic protocol. Different genetic backgrounds (e.g., gene deletions) or conditions (e.g., addition of oleic and palmitoleic acid) were replaced as indicated below.
(§3) Compound stocks (10 mM in 100% DMSO) were arrayed into 384 round well, v-bottom polypropylene plates and diluted according to indicated dilution factors. Compound administration was performed in two separate steps. First, 15 μL of CSM-Galactose (induces expression of toxic protein) was dispensed into clear 384 well assay plates using a MULTIDROP™ Combi reagent dispenser. The diluted compound stock plates were then applied to the assay plates using an automated workstation (Perkin Elmer JANUS™) outfitted with a 384 pin tool containing slotted pins that deliver 100 nL of compound. The cultures described above were then diluted to a 2× concentration (0.03 and 0.08 for alpha-synuclein and ApoE, final OD600 of 0.015 and 0.04) in CSM-Galactose. For wild-type and Ole1/SCD1/SCD5 plasmid-containing strains, the 2× cell density was 0.02. In all experiments, 15 μL culture was then dispensed into the pinned assay plate to achieve 30 μL of the 1×OD600 culture and a top drug concentration of […]. For 96-well assays (FIGS. 2A and 2B), compound dilutions in DMSO were generated in 96 well plates and 1 μL was manually pipetted into 96 well clear bottom assay plates.
(§4) For experiments using a plasmid-borne copy of Ole1, SCD1, or SCD5 (FIGS. 4B, 7, and 8), media lacking uracil (SX-Ura, where X is glucose, raffinose, or galactose), was used for all steps of the compound profiling protocol to ensure its maintenance throughout the assay.
(§5) After yeast delivery, assay plates were incubated under humidified conditions at 30° C. for 24 to 40 h. ApoE4 rescue experiments were stopped at 24 h, aSyn experiments at 40 h, Ole1 at 24 h, and SCD1/SCD5 at 40 h. The growth of yeast was monitored by reading the OD600 of each well using a microplate reader (Perkin Elmer EnVision™). For model rescue experiments, raw data were processed by background subtracting and calculating a fold-change relative to DMSO control [(EXP−0.035)/(DMSO−0.035)—where 0.035 is the OD600 contributed by an empty well containing 30 μL of media alone]. For growth inhibition of wild-type cells, raw data were processed by background subtracting and converting values to a percent of the nontreated condition for that strain [(EXP−0.035)/(DMSO−0.035)×100%].

The target in the next test is T2, human SCD1 (Homo sapiens, UniProt O00767).
T2 construct: host or cells: S. cerevisiae ole1Δ strain (W303 pdr1Δ pdr3Δ background), pRS316 plasmid, TDH3 promoter
T2 sequence (O00767 1-359): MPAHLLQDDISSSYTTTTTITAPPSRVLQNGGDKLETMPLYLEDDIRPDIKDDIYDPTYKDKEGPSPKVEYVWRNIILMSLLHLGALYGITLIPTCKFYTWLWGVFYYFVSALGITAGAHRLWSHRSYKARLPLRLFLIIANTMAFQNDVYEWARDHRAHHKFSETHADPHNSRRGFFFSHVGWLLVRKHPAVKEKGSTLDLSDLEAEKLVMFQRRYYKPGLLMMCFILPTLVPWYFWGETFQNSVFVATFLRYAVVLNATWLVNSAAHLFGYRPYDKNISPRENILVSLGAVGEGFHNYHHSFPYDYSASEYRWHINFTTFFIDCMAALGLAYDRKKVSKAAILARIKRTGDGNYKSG
Description: Growth of humanized yeast expressing human SCD1 as sole desaturase. Type of test: cell-based, humanized yeastized yeastized yeastized yeast. Particulars: for half-maximal inhibitory concentration (IC50), SCD1 humanized strain: yeast growth. On the procedure:
The coding sequence of yeast OLE1 was also cloned into this plasmid). These clones were then transformed into the ole1Δ strain and plated on CSM-Ura media (CSM lacking uracil) with 2% glucose (w/v) and independent colonies were isolated and amplified.
as §2
Compound administration was performed in two separate steps. First, 15 μL of CSM-Galactose (induces expression of toxic protein) was dispensed into clear 384 well assay plates using a MULTIDROP™ Combi reagent dispenser. […] The cultures described above were then diluted to a 2× concentration (0.03 and 0.08 for alpha-synuclein and ApoE, final OD600 of 0.015 and 0.04) in CSM-Galactose. For wild-type and Ole1/SCD1/SCD5 plasmid-containing strains, the 2× cell density was 0.02.
as §4
After yeast delivery, assay plates were incubated under humidified conditions at 30° C. for 24 to 40 h. ApoE4 rescue experiments were stopped at 24 h, aSyn experiments at 40 h, Ole1 at 24 h, and SCD1/SCD5 at 40 h. The growth of yeast was monitored by reading the OD600 of each well using a microplate reader (Perkin Elmer EnVision™).

The target of another test is T3, human SCD5 (Homo sapiens, UniProt Q86SK9).
T3 construct: host or cells: S. cerevisiae ole1Δ strain (W303 pdr1Δ pdr3Δ background), pRS316 plasmid, TDH3 promoter
T3 sequence (Q86SK9 1-330): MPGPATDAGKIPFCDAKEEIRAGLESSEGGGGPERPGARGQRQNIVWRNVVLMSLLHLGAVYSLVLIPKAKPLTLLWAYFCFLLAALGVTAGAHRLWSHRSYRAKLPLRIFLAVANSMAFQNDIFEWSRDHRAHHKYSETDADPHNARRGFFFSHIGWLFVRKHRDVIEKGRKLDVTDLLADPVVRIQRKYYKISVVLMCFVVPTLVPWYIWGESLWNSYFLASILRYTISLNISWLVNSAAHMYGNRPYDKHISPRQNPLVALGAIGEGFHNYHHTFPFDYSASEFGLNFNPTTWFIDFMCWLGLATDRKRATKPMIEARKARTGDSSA
In words: Growth of humanized yeast expressing human SCD5 as sole desaturase. In kind it is cell-based, Saccharomyces cerevisiae expressing Saccharomyces cerevisiae expressing Saccharomyces cerevisiae expressing Saccharomyces cerevisiae expressing Saccharomyces cerevisiae expressing human SCD5 SCD5 SCD5 SCD5 SCD5. Particulars: for half-maximal inhibitory concentration (IC50), SCD5 humanized strain: yeast growth.
Excerpt: as §1, §2, §3, §4, §5

Test [1] relates to cellular fatty acid desaturase activity (Ole1). Description: Quantitative lipid profiling of yeast by LC-MS/MS. Type of test: cell-based, Saccharomyces cerevisiae. The procedure:
Overnight cultures of yeast strain W303 pdr1Δ pdr3Δ were diluted into CSM media with 2% (w/v) raffinose, OD600 0.25, and grown for 4 h before resuspending at an OD600 of 0.2 in CSM media with 2% (w/v) galactose and adding Compound 2 or DMSO at the indicated concentrations. Cells were grown for the indicated timepoints before centrifugation, washing once in PBS, and freezing pellets. Lipids were extracted from pellets by resuspending the pellets in 600 μL methanol, 300 μL water, and 400 μL chloroform, followed by cell lysis by vortexing with glass beads for 1 min. Samples were then centrifuged at 10,000×g for 10 min, and the bottom layer that formed (organic/lipids) was moved into a new tube and evaporated. Samples were then analyzed by LC/MS/MS using a Thermo Scientific Q Exactive™ Orbitrap™ coupled to a Dionex UltiMate® 3000 ultra-high performance liquid chromatography system, following the method described in Tafesse et al. PLoS Pathog. 11(10): e1005188, 2015.

The mark [2] stands for this setting: percent of DMSO-treated condition.

With `Cc1nnc(-c2ccc(N3CCC(Oc4ccccc4C(F)(F)F)CC3)nn2)s1` [MF-438], the “growth inhibition of yeast expressing OLE1” value at yeast OLE1 is “resistant”. On human SCD1, the “half-maximal inhibitory concentration (IC50), SCD1 humanized strain” value is “low nanomolar”. For the same compound, at human SCD5, the “half-maximal inhibitory concentration (IC50), SCD5 humanized strain” value is “low nanomolar”.
As for `O=C(O)Cn1nnc(-c2cc(N3CCC(Oc4cc(F)ccc4Br)CC3)no2)n1` [MK-8245], the “growth inhibition of yeast expressing OLE1” value at yeast OLE1 was “resistant”. Besides, the “half-maximal inhibitory concentration (IC50), SCD5 humanized strain” value on human SCD5 is listed as “low nanomolar”.
With `Cc1nn(C)c2cc(-c3noc(C4CCN(C(=O)CNC(=O)c5ccccc5)CC4)n3)ccc12` [Compound 2, N-(2-(4-(3-(1,3-dimethyl-1H-indazol-6-yl)-1,2,4-oxadiazol-5-yl)piperidin-1-yl)-2-oxoethyl)benzamide], in test [1] (8 h treatment, wild-type yeast), the “decrease in abundance of unsaturated lipid phosphatidylcholine 16:1, 18:1” value was over 12 fold and the “increase in abundance of saturated lipid phosphatidylcholine 26:0” value is over 300 fold. In test [1] (yeast cells), the lipid desaturation result is reported as “inhibited lipid desaturation”.
With `C[C@@H]1C[C@@H]([C@H](O)CC2CC(=O)NC(=O)C2)C(=O)[C@@H](C)C1` [Cyclohexamide, cycloheximide], the “growth inhibition of yeast expressing OLE1” value at yeast OLE1 is listed as “inhibited growth of all three strains with the same potency”. In addition, the “growth inhibition of SCD1-expressing yeast” value at human SCD1 (setting [2]) is given as “inhibited growth of all three strains with the same potency”. Besides, the “growth inhibition of SCD5-expressing yeast” value on human SCD5 (setting [2]) is recorded as “inhibited growth of all three strains with the same potency”.
Consider `CNC(=O)c1cccc(NC(=O)N2CCC(Oc3ccccc3Cl)CC2)c1` [Compound A939572], for which the “growth inhibition of yeast expressing OLE1” value on yeast OLE1 is reported as “resistant”. Besides, the “half-maximal inhibitory concentration (IC50), SCD1 humanized strain” value on human SCD1 is “low nanomolar”. Moreover, at human SCD5, the “half-maximal inhibitory concentration (IC50), SCD5 humanized strain” value is “low nanomolar”.
